Source: patent US8466185B2, “Methods and assays for detecting and treating hypoglycemia” (priority 2008, dated 2013)
Entries after “also recorded” stand apart in the source; their conditions may differ.

What was measured:
[1] = test system: human islets; assay: in vitro perifusion, glucagon secretion from human islets; format: cell-based; settings: for glucagon release / glucagon secretion: agonist 100 μM, 3 mM glucose
Protocol: (§2) A high-capacity, automated perifusion system was developed to dynamically measure hormone secretion from pancreatic islets. A low pulsatility peristaltic pump pushed HEPES-buffered solution (mM: 125 NaCl, 5.9 KCl, 2.56 CaCl2, 1 MgCl2, 25 HEPES, and 0.1% BSA; pH 7.4; and a perifusion rate of 100 μL/min) through a column containing 100 pancreatic islets immobilized in Bio-Gel P-4 Gel (BioRad, Hercules, Calif.). Except otherwise stated, glucose concentration was adjusted to 3 mM for all experiments. Stimuli were applied with the perifusion buffer. The perifusate was collected in an automatic fraction collector designed for a 96 well plate format. The columns containing the islets and the perifusion solutions were kept at 37° C., and the perifusate in the collecting plate was kept at <4° C. Perifusates were collected every minute. Hormone release in the perifusate was determined with the human or mouse Endocrine LINCOplex Kit following manufacturer's instructions (Linco research, St. Charles, Mo.).

[2] = test system: human islets and dispersed single islet cells; assay: [Ca^2+]i imaging (Fura-2) of human islets and dispersed islet cells; format: cell-based; settings: for [Ca^2+]i response: 100 μM
Protocol: (§1) Glucose was added to give a final concentration of 3 mM. Islets or dispersed islet cells were incubated in Fura-2 AM (2 μM; 1 hour) and placed in a closed small-volume imaging chamber (Warner Instruments, Hamden, Conn.). Stimuli were applied with the bathing solution. Islets loaded with Fura-2 were excited alternatively at 340 and 380 nm with a monochromator light source (Cairn. Research Optoscan Monochromator, Cairn Research Ltd, Faversham, UK). Images were acquired with a Hamamatsu camera (Hamamatsu Corp, Japan) attached to a Zeiss Axiovert 200 microscope (Carl Zeiss, Jena, Germany). Changes in the 340/380 fluorescence emission ratio over time were analyzed in individual islets and dispersed cells using Kinetic Imaging AQM Advance software (Kinetic Imaging, N.C.). Peak changes in the fluorescence ratio constituted the response amplitude.

[3] = test system: monkey islets and dispersed single islet cells; assay: [Ca^2+]i imaging (Fura-2) of monkey islets and islet cells; format: cell-based, monkey (Macacca fascicularis); settings: glutamate 100 μM
Protocol: as §1, with “Imaging of [Ca^2+]i was performed as described elsewhere (Cabrera et al., 2006). […] Glucose” for “Glucose”

[4] = test system: human islets; format: cell-based; settings: glutamate 100 μM
Protocol: Perifusion of the islets was stopped after addition of the stimulus to allow the islet secretory products to accumulate and then resumed after 10 minutes.

[5] = test system: mouse islets; assay: perifusion, glucagon secretion from mouse islets; format: cell-based, mouse (C57Bl/6); settings: for glucagon release / secretion: 100 μM
Protocol: as §2

[6] = test system: C57BL/6 mice; assay: in vivo responses to iGluR agonists injected i.p.; parameters: species or system mouse; settings: glutamate 30 mg/kg, AMPA 15 mg/kg, i.p.
Protocol: We examined in vivo responses to iGluR agonists by injecting C57BL/6 mice i.p. with either PBS (n=4), monosodium glutamate (30 mg/kg; n=7), or AMPA (15 mg/kg; n=8). To determine whether blocking iGluRs exacerbates insulin-induced hypoglycemia, we injected the AMPA/kainate iGluR antagonist NBQX (Tocris, Ellisville, Mo.) i.p. at 20 mg/kg 30 minutes before mice were treated with insulin to induce hypoglycemia.

[7] = Beyreuther et al., 2007; cited from earlier work
[8] = test system: human islets; assay: in vitro perifusion, insulin release from human islets; settings: 100 μM
Protocol: as §2

[9] = test system: monkey islets; assay: in vitro perifusion, insulin release from monkey islets; settings: 100 μM; not shown
[10] = test system: isolated human islet cells; assay: whole-cell patch clamp recordings of dispersed human islet cells; format: cell-based; settings: kainate 100 μM; holding potential −70 mV
Protocol: Membrane currents were measured using whole-cell patch clamp recordings of dispersed human islet cells. All recordings were amplified using an EPC10 patch-clamp amplifier and digitized and analyzed using Patchmaster software (Heka Elektronik, Lambrecht, Germany). Pipettes were pulled from borosilicate glass capillaries on a horizontal programmable puller (DMZ Universal Puller, Zeitz-Instrumente, Augsburg, Germany). Pipettes with a resistance of 5-7 MΩ were filled with a pipette solution containing (in mM): 150 NMG (N-methyl-D-Glucamine), 10 EGTA, 1 MgCl2, 2 CaCl2, 5 HEPES and 3 Mg-ATP (pH 7.15). The bath solution contained (in mM): 138 NaCl, 5.6 KCl, 1.2 MgCl2, 2.6 CaCl2, 5 HEPES and 10 TEA (pH7.4). Cells were voltage-clamped at −70 mV. Ligands (e.g. kainate) were applied using the SF-77B Perfusion Fast-Step system (Warner Instruments, Hamden, Conn.), which allows rapid change of solutions bathing a single cell or membrane patch attached to a patch electrode. […] Thus, it is most likely that cells responding to kainate in our electrophysiological experiments were α-cells.

[11] = test system: monkey islets; assay: microfluorometric determination of endogenous glutamate release from islets; format: cell-based; settings: kainate 100 μM; KCl 30 mM
Protocol: Endogenous glutamate release from pancreatic islets was measured with the Amplex Red Glutamic Acid Assay Kit (Molecular Probes) adapted for microscopic microfluorometric detection (Akagi et al., 2003). In this assay, released glutamate is a substrate in an enzymatic chain reaction that generates the highly fluorescent product resorufin (Molecular Probes, Eugene, Oreg.). L-glutamate is oxidized by glutamate oxidase to produce α-ketoglutarate, NH4, and H2O2. Hydrogen peroxide reacts with the Amplex Red reagent in a reaction catalyzed by horseradish peroxidase to generate resorufin. Pancreatic islets were allowed to attach to a glass coverslip previously coated with poly-D-lysine. The coverslip was mounted in a closed small-volume imaging chamber (Warner Instruments) and perifused with the HEPES-buffered solution containing the stimuli. Resorufin fluorescence was excited at 510 nm, and the emission recorded at 590 nm using the same imaging system used to measure [Ca^2+]i (see above).

[12] = test system: mouse islets; assay: perifusion of mouse islets with β cells destroyed by streptozotocin versus intact islets; format: cell-based; settings: streptozotocin-treated versus intact islets
Protocol: This experiment was performed with mouse islets. Two samples were perifused in parallel (“a” and “b”). In “a” (blue curve and blue bar), but not in “b” (red curve and red bar) the β cells were selectively destroyed with streptozotocin. This absence of β cells generates type 1 diabetes-like condition in vitro. The glucagon release profile in panel “A” was obtained by using this model. […] Note that the non specific stimulus arginine is not able to differentiate a functionally impaired α cell in the absence of β cells.
At t=5 min, both samples were stimulated with 100 μM kainate for 5 min. The glucose was increased to 11 mM for 10 minutes and decreased again to 3 mM for the duration of the perifusion. At t=45 min, both samples (v) were stimulated with 5 mM Arginine. […] Kainate is a glutamate analog that is not metabolizable, and therefore a preferred agonist of the AMPA/Kainate receptors. Error bars represent the standards deviations for n=3 perifusions. Comparison were performed by an independent t-test.
For example, in some embodiments the present invention are directed to an in vitro model in which we destroy selectively the beta cells with, for example, streptozotocin, thus creating a situation that mimics type 1 diabetes. The treated islets are composed mainly of alpha cells. […] To examine if alpha cells in islets depleted of beta cells had impaired glutamate signaling, we stimulated them with kainate, an agonist for ionotropic glutamate receptors.

## N[C@@H](CCC(=O)O)C(=O)O [glutamate]
[1]
  glucagon release / glucagon secretion: induced glucagon responses
[1]; glutamate 1 μM-1 mM
  glucagon release: stimulated large, concentration-dependent increases in glucagon release
[2]
  cells responding to high glucose (11 mM) that did not respond to glutamate: 64 out of 64
  [Ca^2+]i response: elicited concentration-dependent [Ca^2+]i; responses; also recorded: increases in cytoplasmic free Ca^2+ concentration
[2]; n=4 human preparations
  glutamate-responsive cells that were glucagon-immunoreactive: 34 out of 37
[3]
  [Ca^2+]i response: increases in cytoplasmic free Ca^2+ concentration
[4]; islets on biosensor cells
  glucagon secretion from human islets measured by [Ca^2+]i responses in biosensor cells: large [Ca^2+]i responses; also recorded: elicited glucagon secretion from human islets
[4]; no islets
  [Ca^2+]i response of biosensor cells in the absence of islets: did not respond; also recorded: No responses were seen
[5]
  glucagon release / secretion: stimulated glucagon release
[5]; glutamate 100 μM
  glucagon responses to glutamate in islets from mGluR4 knockout versus control mice: undistinguishable in wild type and mGluR4KO mice
[6]
  plasma insulin concentrations: not affected; also recorded: did not change
[6]; 30 minutes after treatment
  plasma glucagon concentrations: increased plasma glucagon concentrations
[6]; thirty minutes after injection
  plasma glucose concentrations: increased glucose levels
[7]
  blood-brain barrier penetration: does not penetrate the blood-brain barrier
[8]
  insulin release: Neither kainate (100 μM), glutamate (100 μM), nor AMPA (100 μM) stimulated increases in insulin release
[9]
  insulin release: Neither kainate (100 μM), glutamate (100 μM), nor AMPA (100 μM) stimulated increases in insulin release

## C=C(C)[C@H]1CN[C@H](C(=O)O)[C@H]1CC(=O)O [kainate]
[1]
  glucagon release / glucagon secretion: stimulated large increases in glucagon secretion; also recorded: Increases in glucagon release could also be elicited
[1]; listed as Kainate
  glucagon release / glucagon secretion: elicited strong glucagon secretion
[2]
  glucagon immunoreactive cells that responded to kainate: 7 out of 9
  [Ca^2+]i response: large increases in [Ca^2+]i
[2]; [Ca^2+]i imaging experiments
  kainate responsive cells that were glucagon immunoreactive: > 75%
[2]; kainate 100 μM
  glutamate-responding cells that also responded to kainate: 12 out of 12
[2]; n=8
  insulin immunoreactive cells that responded to kainate: None
[10]
  whole-cell inward currents: elicited inward currents
[11]
  glutamate release (resorufin fluorescence): induced significant glutamate release; also recorded: strongly released glutamate
[5]
  glucagon release / secretion: stimulated glucagon secretion
[12]; kainate 100 μM for 5 min
  reduction of amplitude of kainate-induced glucagon release in absence of β cells: 55%
[12]
  kainate potentiation of glucagon release in absence versus presence of β cells: not as effective in potentiating glucagon release; also recorded: strongly reduced glucagon responses
[8]
  insulin release: Neither kainate (100 μM), glutamate (100 μM), nor AMPA (100 μM) stimulated increases in insulin release
[9]
  insulin release: Neither kainate (100 μM), glutamate (100 μM), nor AMPA (100 μM) stimulated increases in insulin release
